From publication PMC9965125, “New NSAID Conjugates as Potent and Selective COX-2 Inhibitors: Synthesis, Molecular Modeling and Biological Investigation” (Molecules, 2023)

Key:
[1] = system: carrageenan induced paw edema; experiment: carrageenan-induced rat paw edema; type: in vivo
Protocol: Anti-inflammatory activity screening
The anti-inflammatory activity of the tested compounds was determined in-vivo by the acute carrageenan induced paw edema standard method in rats. Adult Wister rats of either sex (pregnant female animals were excluded) weighing 120–150 g were divided into 19 groups of 6 animals each. The tested compounds dissolved in DMSO, at a dose of 10 mg kg-1 (rat body […]
inflammation. The control group was given DMSO only. Paw edema was induced by subcutaneous injection of freshly prepared 1% solution of carrageenan in saline (0.9%, 0.1 ml per rat) into subplantar tissue of the right hind paw of rats. The thickness of the paw was measured (in mm) after successive time intervals (1, 2, 3, 4 and 24 h) and compared with the initial hind paw thickness of each rat for determining the edema thickness. Data were collected, checked, revised and analyzed (SPSS 16). Quantitative variables from normal distribution were expressed as means ± SE “standard error”. The anti-inflammatory activity was expressed as percentage inhibition of edema thickness in treated animals in comparison with the control group according to eqn. (1) […]
% Inhibition of edema= Vc-Vt x 100 … .. (1)
Where, Vc and Vt are the means of edema paw thickness for the control and tested compound treated animal groups, respectively.
The potency of the tested compounds was expressed as % inhibition of edema thickness […]
% Potency = % inhibition of edema for the tested compound treated group x 100 … . (2)

[2] = system: acetic acid-induced abdominal writhing; experiment: acetic acid-induced abdominal writhing assay (peripheral analgesic); type: in vivo, mice; conditions: for % Inhibition/Protection / Writing Reflex ± SE: 10 mg/kg indomethacin mol equivalent i.p.; for Potency: % inhibition/protection compared to indomethacin; for Writing Reflex ± SE: number of writhing counted for 30 min
Protocol: Peripheral analgesic testing
Peripheral analgesic activity was measured by the standard acetic acid-induced writhing […]
One hour after intraperitoneally (i,p.) administration of 10 mg kg−1 (mice body weight) […]
distilled/sterile water by the aid of two drops of Tween 80, each mouse was injected with 0.1 ml of 1% acetic acid solution i.p. The control group animals were given sterile/distilled water only with few drops of Tween 80. Starting 5 min after the acetic acid injection, the number of muscular contractions in each mouse was counted for 30 min. A significant reduction in the number of writhing by any test compound as compared to control animals was considered as a positive analgesic response. Percentage protection was calculated according to equ. (3), where n stands for the average number of writhing in the control group and n' is the average number of writhing in the treated group. The % potency was calculated by equ. (4) (Table 2).
% Inhibition/protection = n−n′ x100 … . (3)

[3] = system: hot plate latency; experiment: hot plate assay (central analgesic); type: in vivo, mice; conditions: for % Protection / Latency Period ± SE: 10 mg/kg indomethacin mol equivalent i.p.; for Latency Period ± SE: cutoff 15 sec; for Potency: at 120 min compared to indomethacin
Protocol: The % potency was calculated by equ. (4) (Table 2). […]
% Potency = % protection of the tested compound x 100 ……. (4) […]
Central analgesic (hot plate) testing
The standard hot plate technique was undertaken by in vivo standard hot plate test [ 1,2]. […]
by placing them on a hot plate maintained at 55 ± 1 °C, 30 min. […]
suspended in sterile/distilled water by the ai d of two drops of Tween 80, and recording the reaction time in seconds for forepaw licking or jumping. The control group animals were given sterile/distilled water only with few drops of Tween 80. The maximum cutoff time was chosen as 15 sec. to prevent tissue damage. Response latencies were measured 30, 60, 90 and 120 min. after the application. The % protection was calculated by equ. ( 5) where, T1, T0 are the latency time mean of the tested compound and control group, respectively (Table 3).

[4] = system: gastric mucosa; conditions: both, albino, mouse, in vivo, po, 10 mg/kg, 3 days
Protocol: The ulcerogenic liability was determined in albino mice obeying the standard method.
Animals of either sex (pregnant females were excluded) weighing 20 –25 g were divided into 8 groups of 6 animals each. The animals fasted 18 h before drug administration.
80 administered orally for three successive days to fasted animals at a dose of 10 mg kg-1 (animal […]
The control group animals were given water only with few drops of Tween 80. The animals were sacrificed by cervical dislocation and the stomach was removed, opened along the greater curvature and rinsed with saline. The gastric mucosa was examined with a magnifying lens (10x) for the presence of lesions and ero sions. The ulcer index was calculated (Table 4) and the degree of ulcerogenic effect was expressed in terms of.
1. The percentage incidence of ulcers divided by 10.
2. Average number of ulcers per stomach.
3. Average severity of ulcers.
The ulcer index is the value that resulted from the sum of the above three values. […]

[5] = 1 h, 10 mg/kg indomethacin mol equivalent i.p.
[6] = 2 h, 10 mg/kg indomethacin mol equivalent i.p.
[7] = 3 h, 10 mg/kg indomethacin mol equivalent i.p.
[8] = 4 h, 10 mg/kg indomethacin mol equivalent i.p.
[9] = 24 h, 10 mg/kg indomethacin mol equivalent i.p.

Structure (SMILES)	% Inhibition of Edema ± Standard Error [1, 5]	% Inhibition of Edema ± Standard Error [1, 6]	% Inhibition of Edema ± Standard Error [1, 7]	% Inhibition of Edema ± Standard Error [1, 8]	% Inhibition/Protection [2]	Potency [2]	Writing Reflex ± SE [2]	% Protection ([3]; after 30 min)	Latency Period ± SE ([3]; after 30 min)	% Protection ([3]; after 60 min)	Latency Period ± SE ([3]; after 60 min)	% Protection ([3]; after 90 min)	Latency Period ± SE ([3]; after 90 min)	% Protection ([3]; after 120 min)	Latency Period ± SE ([3]; after 120 min)	Potency [3]	% Inhibition of Edema ± Standard Error [1, 9]	other results
CC(C)Cc1ccc(C(C)C(=O)O)cc1 (centres unmarked) [Ibu, Ibuprofen, reference compound]	44.4 ± 2.5%	43.5 ± 2.9%	78.8 ± 0.9%	21.0 ± 1.1%	58.5%	81.5%	16.6 ± 0.7	61.7%	10.80 ± 0.8 s	51.3%	11.00 ± 1.3 s	33.6%	11.90 ± 1.5 s	54.3%	13.90 ± 2.2 s	96.1		% Inhibition of Edema ± Standard Error ([1]; 24 h, 10 mg/kg indomethacin mol equivalent i.p., 10 mg/kg): 11.2 ± 0.6%; % Inhibition of Edema ± Standard Error ([1]; 24 h, 10 mg/kg indomethacin mol equivalent i.p., listed as ibuprofen, 10 mg/kg): 11.2%; Mean Edema Thickness ([1]; 24 h, 10 mg/kg indomethacin mol equivalent i.p., ± standard error): 0.817 ± 0.07 mm; % Potency ([1]; % inhibition of edema thickness relative to indomethacin at 3 h): 97.2%; % Incidence of Ulcer Divided by 10 [4]: 3.33; Average Severity of Ulcer [4]: 0.67; Average of Ulcer Number [4]: 0.33; Number of Animals with Ulcer [4]: 2/6
COc1ccc2c(c1)c(CC(=O)OCc1cn(-c3ccc(F)cc3)nn1)c(C)n2C(=O)c1ccc(Cl)cc1 [Compound 8c, (1-(4-Fluorophenyl)-1H-1,2,3-triazol-4-yl)methyl 2-(1-(4-chlorobenzoyl)-5-methoxy-2-methyl-1H-indol-3-yl)acetate]					41.3%	57.5%	23.5 ± 1.4	69.5%	11.32 ± 0.8 s	29.2%	9.39 ± 1.1 s	27.9%	11.40 ± 1.6 s	48.1%	13.34 ± 1.8 s	85.1	0.00 ± 1.0%	
COc1ccc2c(c1)c(CC(=O)OCc1cn(-c3ccc(C)cc3)nn1)c(C)n2C(=O)c1ccc(Cl)cc1 [Compound 8d, (1-(p-Tolyl)-1H-1,2,3-triazol-4-yl)methyl 2-(1-(4-chlorobenzoyl)-5-methoxy-2-methyl-1H-indol-3-yl)acetate]	0.00 ± 0.8%		0.00 ± 0.5%	0.00 ± 0.6%	62.5%	87.0%	15.0 ± 1.6	97.8%	13.21 ± 2.5 s	74.0%	12.65 ± 2.0 s	50.1%	13.37 ± 1.6 s	48.6%	13.39 ± 1.2 s	86.0	0.00 ± 0.4%	
COc1ccc(-n2cc(COC(=O)C(C)c3ccc(CC(C)C)cc3)nn2)cc1 (centres unmarked) [Compound 5f, (1-(4-Methoxyphenyl)-1H-1,2,3-triazol-4-yl)methyl 2-(4-isobutylphenyl)propanoate]				1.8 ± 0.7%	80.0%	111.4%	8.0 ± 1.4	90.1%	12.7 ± 0.9 s	56.8%	11.40 ± 1.5 s	19.0%	10.60 ± 1.9 s	0.2%	9.03 ± 1.6 s	0.4	2.5 ± 0.9%	
COc1ccc2c(c1)c(CC(=O)OCc1cn(-c3ccccc3OC)nn1)c(C)n2C(=O)c1ccc(Cl)cc1 [Compound 8e, (1-(2-Methoxyphenyl)-1H-1,2,3-triazol-4-yl)methyl 2-(1-(4-chlorobenzoyl)-5-methoxy-2-methyl-1H-indol-3-yl)acetate]	0.00 ± 0.2%	6.5 ± 1.0%		4.2 ± 1.9%	80.8%	112.5%	7.7 ± 1.3	69.2%	11.30 ± 1.1 s	82.0%	13.23 ± 1.6 s	27.5%	11.36 ± 2.5 s	28.9%	11.61 ± 2.2 s	51.2	0.00 ± 0.3%	
